Experimental data from patent US5191079A, “Quinolinecarboxylic acid derivatives” (priority 1990, dated 1993).
Values after ≈ are worked out from the molar mass of the structure shown. Structures can show the parent of a compound that is named as a salt. Where two headings read alike, the source gives them in different places.

What was measured:
Format in all cases: cell-based
[1] = test system: clinically isolated Staphylococcus epidermidis; test: In vitro antibacterial activity against clinical isolates, Experiment 2; details: for MIC50 / MIC / MIC90: Staphylococcus epidermidis; for MIC90: 90% of strains, read-out: MIC90
Method: The above solutions were then diluted with sterilized distilled water to prepare a standard solution with a concentration of the test compound: 1000 μg/ml each.
For the preculture of each microorganism, there was used as the medium a sensitivity test broth (manufactured by Nissui Seiyaku K. K., Japan), and for the measurement of MIC, there was used a sensitivity test agar medium (manufactured by Nissui Seiyaku K. K.).
The clinically isolates used above were isolated from Nov. 1988 to Jun. 1989 and were obtained from Research Section, Tokyo Clinical Research Center.

Enterobacter cloacae 963 = test: MIC, Experiment 1; details: E. cloacae 963, Gram -, read-out: Min. inhib. concentr. (MIC)
Method: (§1) The compounds of the present invention (B, E, G, H, M, N, O, P and Q) were each dissolved in dimethylsulfoxide to prepare a solution of 5000 μg/ml in concentration. The compounds of the present invention (I, J and K) and the known compound (Y) were each dissolved in sterilized distilled water to prepare a solution of 5000 μg/ml in concentration. Each solution was diluted with sterilized distilled water to prepare a standard solution with a concentration of each test compound: 1000 μg/ml. The test was carried out by a method as appointed by Japan Society of Chemotherapy [cf. Chemotherapy, 29, 76-79 (1981), TOKYO].
(§2) As to Streptococcus pneumoniae and Streptococcus pyogenes, Brain heart infusion broth (manufactured by DIFCO) was used as the medium for the preculture thereof, and a heart infusion agar medium containing 5% defibrinated horse blood (manufactured by Nissui Seiyaku K. K., Japan) was used as the medium for the measurement of minimum inhibitory concentration (MIC). As to other microorganisms, a sensitivity test broth (manufactured by Nissui Seiyaku K. K.) was used as the medium for the preculture thereof, and a sensitivity test agar medium (manufactured by Nissui Seiyaku K. K.) was used as the medium for the measurement of MIC.

[2] = test system: Streptococcus pyogenes Cook; test: MIC, Experiment 1; details: S. pyogenes Cook, Gram +, agar with 5% defibrinated horse blood, read-out: Min. inhib. concentr. (MIC)
Method: as §1, §2

[3] = test system: Proteus mirabilis IFO 3849; test: MIC, Experiment 1; details: IFO3849, P. mirabilis IFO 3849, Gram -, read-out: Min. inhib. concentr. (MIC)
Method: as §1, §2

[4] = test system: Staphylococcus aureus FDA 243; test: MIC, Experiment 1; details: FDA243, S. aureus FDA 243, Gram +, read-out: Min. inhib. concentr. (MIC)
Method: as §1, §2

[5] = test system: Escherichia coli NIHJ JC-2; test: MIC, Experiment 1; details: NIHJJC2, E. coli NIHJ JC-2, Gram -, read-out: Min. inhib. concentr. (MIC)
Method: as §1, §2

[6] = test system: Klebsiella pneumoniae PCI-602; test: MIC, Experiment 1; details: PCI602, K. pneumoniae PCI-602, Gram -, read-out: Min. inhib. concentr. (MIC)
Method: as §1, §2

[7] = test system: Acinetobacter calcoaceticus Ac 54; test: MIC, Experiment 1; details: AC54, A. calcoaceticus Ac 54, Gram -, read-out: Min. inhib. concentr. (MIC)
Method: as §1, §2

[8] = test system: Staphylococcus aureus FDA 209P JC-1; test: MIC, Experiment 1; details: FDA209P, S. aureus FDA 209P JC-1, Gram +, read-out: Min. inhib. concentr. (MIC)
Method: as §1, §2

[9] = test system: Streptococcus pyogenes Su; test: MIC, Experiment 1; details: S. pyogenes Su, Gram +, agar with 5% defibrinated horse blood, read-out: Min. inhib. concentr. (MIC)
Method: as §1, §2

[10] = test system: Staphylococcus aureus Cowan I (IID 975); test: MIC, Experiment 1; details: IID975, S. aureus Cowan I (IID 975), Gram +, read-out: Min. inhib. concentr. (MIC)
Method: as §1, §2

Bacillus cereus IAM 1029 = test: MIC, Experiment 1; details: IAM1029, B. cereus IAM 1029, Gram +, read-out: Min. inhib. concentr. (MIC)
Method: as §1, §2

[11] = test system: Micrococcus luteus ATCC 9341; test: MIC, Experiment 1; details: ATCC9341, M. luteus ATCC 9341, Gram +, read-out: Min. inhib. concentr. (MIC)
Method: as §1, §2

[12] = test system: Staphylococcus aureus ATCC 9144; test: MIC, Experiment 1; details: ATCC9144, S. aureus ATCC 9144, Gram +, read-out: Min. inhib. concentr. (MIC)
Method: as §1, §2

[13] = test system: Staphylococcus aureus IID 803; test: MIC, Experiment 1; details: IID803, S. aureus IID 803, Gram +, read-out: Min. inhib. concentr. (MIC)
Method: as §1, §2

[14] = test system: Streptococcus pneumoniae IID 554; test: MIC, Experiment 1; details: IID554, S. pneumoniae IID 554, Gram +, agar with 5% defibrinated horse blood, read-out: Min. inhib. concentr. (MIC)
Method: as §1, §2

[15] = test system: Bacillus subtilis ATCC 6633; test: MIC, Experiment 1; details: ATCC6633, B. subtilis ATCC 6633, Gram +, read-out: Min. inhib. concentr. (MIC)
Method: as §1, §2

[16] = test system: Staphylococcus aureus MS-353; test: MIC, Experiment 1; details: MS353, S. aureus MS-353, Gram +, read-out: Min. inhib. concentr. (MIC)
Method: as §1, §2

[17] = test system: Streptococcus pneumoniae IID 552; test: MIC, Experiment 1; details: IID552, S. pneumoniae IID 552, Gram +, agar with 5% defibrinated horse blood, read-out: Min. inhib. concentr. (MIC)
Method: as §1, §2

[18] = test system: Streptococcus pyogenes Sv; test: MIC, Experiment 1; details: S. pyogenes Sv, Gram +, agar with 5% defibrinated horse blood, read-out: Min. inhib. concentr. (MIC)
Method: as §1, §2

[19] = test system: Staphylococcus aureus Terajima (IID 670); test: MIC, Experiment 1; details: IID670, S. aureus Terajima (IID 670), Gram +, read-out: Min. inhib. concentr. (MIC)
Method: as §1, §2

[20] = test system: Pseudomonas aeruginosa NCTC 10490; test: MIC, Experiment 1; details: NCTC10490, P. aeruginosa NCTC 10490, Gram -, read-out: Min. inhib. concentr. (MIC)
Method: as §1, §2

[21] = 25 clinical strains S. epidermidis
[22] = 25 clinical strains S. epidermidis, 50% of strains, read-out: MIC50

Row | SMILES | MIC90 [1, 21] [µg/mL] | MIC (Enterobacter cloacae 963) [µg/mL] | MIC [2] [µg/mL] | MIC [3] [µg/mL] | MIC [4] [µg/mL] | MIC [5] [µg/mL] | MIC [6] [µg/mL] | MIC [7] [µg/mL] | MIC [8] [µg/mL] | MIC [9] [µg/mL] | MIC [10] [µg/mL] | MIC (Bacillus cereus IAM 1029) [µg/mL] | MIC [11] [µg/mL] | MIC [12] [µg/mL] | MIC [13] [µg/mL] | MIC [14] [µg/mL] | MIC [15] [µg/mL] | MIC [16] [µg/mL] | MIC [17] [µg/mL] | MIC [18] [µg/mL] | further results
1 | CN1Cc2csc3c(C(=O)O)c(=O)c4cc(F)c(N5CCO[C@@H](CO)C5)c1c4n23 [Compound (N), 9,1-(Methylimino)methano-7-fluoro-8-[(2R)-2-hydroxymethylmorpholino]-5-oxo-5H-thiazolo[3,2-a]quinoline-4-caboxylic acid] | 0.39 (≈ 0.93 µM) | 0.39 (≈ 0.93 µM) | 0.025 (≈ 0.0596 µM) | 0.39 (≈ 0.93 µM) | ≤ 0.006 | 0.2 (≈ 0.477 µM) | ≤ 0.006 | ≤ 0.006 | 0.013 (≈ 0.031 µM) | 0.025 (≈ 0.0596 µM) | 0.013 (≈ 0.031 µM) | 0.025 (≈ 0.0596 µM) | 0.1 (≈ 0.238 µM) | ≤ 0.006 | 0.013 (≈ 0.031 µM) | 0.05 (≈ 0.119 µM) | ≤ 0.006 | 0.025 (≈ 0.0596 µM) | 0.025 (≈ 0.0596 µM) | 0.05 (≈ 0.119 µM) | MIC50 [1]: 0.025 µg/mL (≈ 0.0596 µM); MIC [1, 21]: 0.006 to 0.78 µg/mL (≈ 0.0143 to 1.86 µM); MIC [19]: 0.025 µg/mL (≈ 0.0596 µM); MIC [20]: 0.39 µg/mL (≈ 0.93 µM)
2 | CN1Cc2csc3c(C(=O)O)c(=O)c4cc(F)c(N5CCN(C)C(CO)C5)c1c4n23 (stereo not drawn) [Compound (I), 9,1-(Methylimino)methano-7-fluoro-8-(3-hydroxymethyl-4-methyl-1-piperazinyl)-5-oxo-5H-thiazolo-[3,2-a]quinoline-4-carboxylic acid hydrochloride] | 3.13 | 0.2 | 0.05 | 0.78 | 0.1 | 0.2 | 0.025 | 0.1 | 0.2 | 0.05 | 0.2 | 0.2 | 0.39 | 0.1 | 0.2 | 0.05 | 0.1 | 0.39 | 0.1 | 0.1 | MIC [1, 21]: 0.05 to 3.13 µg/mL; MIC50 [1, 22]: 0.1 µg/mL; MIC [19]: 0.2 µg/mL; MIC [20]: 0.78 µg/mL
3 | COCC1CN(c2c(F)cc3c(=O)c(C(=O)O)c4scc5n4c3c2N(C)C5)CCO1 (stereo not drawn) [Compound (E), 9,1-(Methylimino)methano-7-fluoro-8-(2-methoxymethylmorpholino)-5-oxo-5H-thiazolo[3,2-a]quinoline-4-carboxylic acid] | 0.39 (≈ 0.9 µM) | 0.78 (≈ 1.8 µM) | 0.05 (≈ 0.115 µM) | 0.78 (≈ 1.8 µM) | ≤ 0.006 | 0.2 (≈ 0.461 µM) | 0.025 (≈ 0.0577 µM) | 0.013 (≈ 0.03 µM) | 0.025 (≈ 0.0577 µM) | 0.05 (≈ 0.115 µM) | ≤ 0.006 | 0.025 (≈ 0.0577 µM) | 0.1 (≈ 0.231 µM) | 0.013 (≈ 0.03 µM) | 0.013 (≈ 0.03 µM) | 0.05 (≈ 0.115 µM) | ≤ 0.006 | 0.013 (≈ 0.03 µM) | 0.05 (≈ 0.115 µM) | 0.05 (≈ 0.115 µM) | MIC [1, 21]: 0.006 to 0.39 µg/mL (≈ 0.0138 to 0.9 µM); MIC50 [1, 22]: 0.05 µg/mL (≈ 0.115 µM); MIC [19]: 0.025 µg/mL (≈ 0.0577 µM); MIC [20]: 1.56 µg/mL (≈ 3.6 µM)
4 | CN1Cc2csc3c(C(=O)O)c(=O)c4cc(F)c(N5CCOC(CF)C5)c1c4n23 (stereo not drawn) [Compound (C), 9,1-(Methylimino)methano-7-fluoro-8-(2-fluoromethylmorpholino)-5-oxo-5H-thiazolo[3,2-a]quinoline-4-carboxylic acid] | 0.39 (≈ 0.925 µM) | 0.2 (≈ 0.475 µM) | 0.05 (≈ 0.119 µM) | 0.2 (≈ 0.475 µM) | ≤ 0.006 | 0.2 (≈ 0.475 µM) | ≤ 0.006 | ≤ 0.006 | 0.013 (≈ 0.0308 µM) | 0.025 (≈ 0.0593 µM) | 0.013 (≈ 0.0308 µM) | 0.013 (≈ 0.0308 µM) | 0.1 (≈ 0.237 µM) | 0.013 (≈ 0.0308 µM) | ≤ 0.006 | 0.05 (≈ 0.119 µM) | ≤ 0.006 | 0.013 (≈ 0.0308 µM) | 0.025 (≈ 0.0593 µM) | 0.05 (≈ 0.119 µM) | MIC [1, 21]: 0.006 to 0.39 µg/mL (≈ 0.0142 to 0.925 µM); MIC50 [1, 22]: 0.013 µg/mL (≈ 0.0308 µM); MIC [19]: 0.013 µg/mL (≈ 0.0308 µM); MIC [20]: 0.39 µg/mL (≈ 0.925 µM)
5 | CN1CCN(c2c(F)cc3c(=O)c(C(=O)O)c4scc5n4c3c2OC5)CC1 [Compound (Y), 9,1-Epoxymethano-7-fluoro-8-(4-methyl-1-piperazinyl)-5-oxo-5H-thiazolo[3,2-a]quinoline-4-carboxylic acid hydrochloride, reference compound] | 12.5 | 0.1 | 0.1 | 0.2 | 0.05 | 0.1 | 0.025 | 0.2 | 0.2 | 0.1 | 0.1 | 0.39 | 1.56 | 0.05 | 0.2 | 0.2 | 0.1 | 0.1 | 0.1 | 0.2 | MICrange [1, 21]: 0.025 to 25 µg/mL; MIC50 [1, 22]: 0.1 µg/mL; MIC [19]: 0.1 µg/mL; MIC [20]: 0.78 µg/mL
6 | COC[C@@H]1CN(c2c(F)cc3c(=O)c(C(=O)O)c4scc5n4c3c2N(C)C5)CCO1 [Compound (O), 9,1-(Methylimino)methano-7-fluoro-8-[(2S)-2-methoxymethylmorpholino)-5-oxo-5H-thiazolo[3,2-a]quinoline-4-carboxylic acid] | 0.39 (≈ 0.9 µM) | 0.78 (≈ 1.8 µM) | 0.05 (≈ 0.115 µM) | 0.78 (≈ 1.8 µM) | ≤ 0.006 | 0.2 (≈ 0.461 µM) | 0.013 (≈ 0.03 µM) | 0.013 (≈ 0.03 µM) | 0.025 (≈ 0.0577 µM) | 0.05 (≈ 0.115 µM) | ≤ 0.006 | 0.025 (≈ 0.0577 µM) | 0.1 (≈ 0.231 µM) | 0.025 (≈ 0.0577 µM) | 0.013 (≈ 0.03 µM) | 0.05 (≈ 0.115 µM) | 0.013 (≈ 0.03 µM) | 0.013 (≈ 0.03 µM) | 0.05 (≈ 0.115 µM) | 0.05 (≈ 0.115 µM) | MIC [1, 21]: 0.006 to 0.78 µg/mL (≈ 0.0138 to 1.8 µM); MIC50 [1, 22]: 0.05 µg/mL (≈ 0.115 µM); MIC [19]: 0.025 µg/mL (≈ 0.0577 µM); MIC [20]: 0.78 µg/mL (≈ 1.8 µM)
